Results: patent US20050009776A1, “Method of treating atrial fibrillation or atrial flutter” (Aderis Pharmaceuticals, Inc., priority 2003, published 2005)

Experiment: Example 5: pharmacokinetics and renal function markers of short i.v. infusions in healthy subjects
Assay type: in vivo, human
Description: A study was designed to determine the dose dependent pharmacokinetics (PK) of short i.v. infusions of DTI-0009 in healthy subjects. Ten healthy young volunteer (ages 21 to 35 years old) received a 30-minute infusion of 1 μg/kg DTI-0009, or 5 μg/kg DTI-0009 or saline on three different occasions. The subjects were hydrated by a saline infusion ([…]) for one hour prior to and five hours after the start of the drug infusion. Serial plasma and urine samples were taken over 24 hours to measure DTI-0009 concentrations (as well as glucuronide, in urine only), creatinine, sodium and potassium by validated methods. The following renal function markers were assessed over time: urinary flow rate (UF), creatinine clearance (CLCrea), sodium clearance (CLNa) and potassium clearance (CLK). Additionally, noncompartmental PK analysis was performed and instantaneous renal clearance (CLren^inst) was estimated as a function of UF and CLcrea.

In the case of `CCNC(=O)[C@H]1O[C@@H](n2cnc3c(NC4CCCC4)ncnc32)[C@H](O)[C@@H]1O` [DTI-0009, N^6-cyclopentyl-5′-(N-ethyl)carboxamidoadenosine], the Vdss is reported as “approached body weight”, the “duration of inhibitory effects on CLCrea” value is reported as 1 to 2 h and the “duration of inhibitory effects on CLNa” value is reported as 3 to 4 h. For the same compound, the “time at which dose-dependent secondary effects (rebounds) in UF and natriuresis were apparent” value was 5 to 10 h, the “CLnonren with increasing dose” value (1 μg/kg vs 5 μg/kg) was “appeared unchanged” and the “CLren reduced with increasing dose” value (1 μg/kg vs 5 μg/kg) was 29%. The “CLtot reduced with increasing dose” value (1 μg/kg vs 5 μg/kg) was 25%, the “eliminated unchanged in urine” value (30-minute i.v. infusion of 1 or 5 μg/kg) was “About 42%” and the “effect on diuresis, natriuresis and kaliuresis” value (initially, dose-dependent inhibition of CLcrea, CLNa and to a lesser extent CLK) was “transiently reduced diuresis, natriuresis and kaliuresis”.
